Measured values as given in ChEMBL document CHEMBL2021844, “The central valine concept provides an entry in a new class of non peptide inhibitors of the p53-MDM2 interaction” (Bioorg Med Chem Lett, 2012).

How the values were obtained:
[1] = biological target: Tumour suppressor p53/oncoprotein Mdm2 (Homo sapiens, UniProt Q00987); test: Inhibition of p53 (18 to 26)-MDM2 (2 to 188) interaction using fluorescent dye Cy5 by TR-FRET assay; format: protein assay
Protein Mdm4 = biological target: T1, Protein Mdm4 (Homo sapiens, UniProt O15151); test: Inhibition of p53 derived peptide binding to MDM4 using fluorescent dye Cy5 by TR-FRET assay
T1 sequence (O15151 whole entry): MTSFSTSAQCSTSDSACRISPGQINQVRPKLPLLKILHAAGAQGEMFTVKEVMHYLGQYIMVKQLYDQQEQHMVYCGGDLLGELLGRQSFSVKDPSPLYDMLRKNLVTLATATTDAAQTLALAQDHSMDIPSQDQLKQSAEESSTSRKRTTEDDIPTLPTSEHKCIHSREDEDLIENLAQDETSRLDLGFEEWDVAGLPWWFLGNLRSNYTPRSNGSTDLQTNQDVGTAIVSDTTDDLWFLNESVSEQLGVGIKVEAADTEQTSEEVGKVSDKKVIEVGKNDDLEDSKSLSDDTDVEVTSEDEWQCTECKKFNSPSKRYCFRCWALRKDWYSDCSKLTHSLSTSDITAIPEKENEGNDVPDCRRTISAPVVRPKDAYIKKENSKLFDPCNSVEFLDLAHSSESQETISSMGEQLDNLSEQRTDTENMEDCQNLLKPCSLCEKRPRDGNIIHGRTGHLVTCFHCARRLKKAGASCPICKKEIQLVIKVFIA

SJSA-1 [2] = test: Antiproliferative activity against human SJSA1 cells expressing p53; format: functional, cell-based
SJSA-1 [3] = test: Ratio of IC50 for human SJSA1 cells expressing p53 to IC50 for human p53 deficient SAOS2 cells; format: functional

Tumour suppressor p53/oncoprotein Mdm2, sequence (P04637 whole entry): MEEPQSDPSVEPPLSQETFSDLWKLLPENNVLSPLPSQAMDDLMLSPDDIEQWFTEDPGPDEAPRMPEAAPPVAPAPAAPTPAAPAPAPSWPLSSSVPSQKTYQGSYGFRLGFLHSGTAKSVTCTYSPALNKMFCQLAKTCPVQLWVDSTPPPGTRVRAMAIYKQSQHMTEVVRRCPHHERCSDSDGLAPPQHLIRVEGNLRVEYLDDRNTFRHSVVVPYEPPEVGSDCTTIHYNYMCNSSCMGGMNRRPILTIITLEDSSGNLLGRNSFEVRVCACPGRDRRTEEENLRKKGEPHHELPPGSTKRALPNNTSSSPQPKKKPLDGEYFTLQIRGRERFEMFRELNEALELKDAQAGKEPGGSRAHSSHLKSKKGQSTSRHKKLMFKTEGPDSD
Tumour suppressor p53/oncoprotein Mdm2, sequence (Q00987 whole entry): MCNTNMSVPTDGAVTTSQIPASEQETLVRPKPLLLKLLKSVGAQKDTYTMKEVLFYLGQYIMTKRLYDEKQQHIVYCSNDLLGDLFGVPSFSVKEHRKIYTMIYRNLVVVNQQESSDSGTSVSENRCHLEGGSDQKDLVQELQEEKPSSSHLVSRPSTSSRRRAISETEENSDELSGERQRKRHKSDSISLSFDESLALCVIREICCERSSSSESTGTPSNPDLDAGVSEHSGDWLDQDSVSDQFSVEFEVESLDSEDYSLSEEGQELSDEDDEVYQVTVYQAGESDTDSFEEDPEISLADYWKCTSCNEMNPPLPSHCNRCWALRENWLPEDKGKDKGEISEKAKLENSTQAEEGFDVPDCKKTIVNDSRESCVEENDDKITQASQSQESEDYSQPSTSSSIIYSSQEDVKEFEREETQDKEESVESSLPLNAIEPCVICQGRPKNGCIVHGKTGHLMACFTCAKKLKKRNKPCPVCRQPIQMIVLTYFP

COc1ccc(Cn2c(C)nc(Cc3ccc(N)cc3)c2Cc2ccc(Cl)cc2)cc1
IC50 [1]: 3400 nM | IC50 (Protein Mdm4): 70 µM

CC(C)CCn1cnc(-c2ccccc2)c1-c1c[nH]c2cc(Cl)ccc12
IC50 [1]: 900 nM | IC50 (Protein Mdm4): 18 µM

Clc1ccc(Cn2cnc(-c3ccccc3)c2-c2c[nH]c3cc(Cl)ccc23)cc1
IC50 [1]: 200 nM | IC50 (Protein Mdm4): 22 µM

O=C(NCCN1CCOCC1)c1[nH]c2cc(Cl)ccc2c1-c1c(-c2ccccc2)ncn1Cc1ccc(Cl)cc1
IC50 (SJSA-1 [2]): 7.3 µM | Ratio IC50 (SJSA-1 [3]): 3 | IC50 (Protein Mdm4): 19 µM
